Laboratory results reported in PMC10468695, “The coenzyme B12 precursor 5,6-dimethylbenzimidazole is a flavin antagonist in Salmonella” (Microbial Cell, 2023).

Target: T1, NAD(P)H:flavin reductase (Fre) (Salmonella enterica, UniProt Q9L6L9)
T1 construct: tag-less Fre (H6 tag cleaved by rTEV)
T1 sequence (Q9L6L9 2-233): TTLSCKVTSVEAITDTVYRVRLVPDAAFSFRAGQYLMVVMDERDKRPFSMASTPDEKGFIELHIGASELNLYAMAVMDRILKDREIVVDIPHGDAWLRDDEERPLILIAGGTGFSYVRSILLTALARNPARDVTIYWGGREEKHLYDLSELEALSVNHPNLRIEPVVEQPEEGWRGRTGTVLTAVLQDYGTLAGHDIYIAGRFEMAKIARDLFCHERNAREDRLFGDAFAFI
Test: NADH oxidation assay at […] nm with purified Fre; competitive inhibition fit versus FMN
Assay type: biochemical

Cc1cc2nc[nH]c2cc1C [DMB, 5,6-dimethylbenzimidazole]
Ki: 1900 µM
